Measurements from patent publication US20220331303A1, “USE OF AN OREXIN 2 RECEPTOR AGONIST FOR THE TREATMENT OF EXCESSIVE SLEEPINESS” (Takeda Pharmaceutical Company Limited, priority 2019, published 2022).

Test system: sleep-deprived healthy volunteers
Test: Karolinska Sleepiness Scale (KSS) in sleep-deprived healthy volunteers
Type: in vivo, human
Procedure: During the day before dosing on Day 1, participants were administered the KSS at scheduled timepoints. A practice MWT session was performed on Day 1 treatment period 1 (only once during the entire study) to familiarize subjects with the procedures. Study drug was administered in the clinic in the evening on Day 1 of each treatment period. Subjects underwent the MWT and KSS at specified timepoints after the start of the infusion. Subjects were required to stay awake between the MWT tests. Following completion of the IV infusion on Day 2, subjects underwent an additional MWT test. When the final MWT test and cognitive testing were completed, subjects were allowed to sleep (recovery sleep) for approximately 6 hours. PSG recording was collected during this time. Subjects were discharged from the unit after completion on Day 2 with continuing actigraphy upon discharge (to begin on Day −6 before the next treatment period). The interval between each subsequent treatment period was at least 7 days to ensure that the subject's circadian rhythm had returned to a normal cycle. Subject's vital signs, including BP, were monitored during the dosing and testing period. Blood samples for determination of Compound A plasma concentrations were collected at specified timepoints on Days 1 and 2 of each treatment period. Subjects completed the Columbia-Suicide Severity Rating Scale (C-SSRS) during screening, before study drug administration, and before discharge on Day 2 of each treatment period.
Secondary endpoints: • PK parameters calculated from plasma concentrations of Compound A. • Scores for sleepiness on the Karolinska Sleepiness Scale (KSS).
The secondary efficacy endpoint was sleepiness/alertness as assessed by KSS at 14, 10, 6, and 2 hours predose (approximately between 7:45 AM to 7:45 PM); 2, 2.75, 4.75, 6.75, and 8.75 hours post infusion start (approximately between mid-night to 7 AM in the morning); and at 1.75 hours post infusion end. A higher value indicates more sleepiness, a lower value indicates more alertness. Prior to infusion, there were no statistically significant differences at any time point of observation in KSS score for Compound A 44 and 112 mg treatments when compared to placebo. […] On the average, for modafinil and Compound A 44 and 112 mg, there were about 1.6 to 3.7 points increase in the KSS postdose/the infusion start, relative to that prior to dosing during the daytime. However, for placebo, the increase in the average KSS is 4.9.

[1] = Compound A 44 mg, 1.75 HOURS POST INFUSION END
[2] = Compound A 44 mg, 2 HOURS PREDOSE
[3] = Compound A 44 mg, 2.75 HOURS POST INFUSION START
[4] = Compound A 44 mg, 4.75 HOURS POST INFUSION START
[5] = Compound A 44 mg, 6 HOURS PREDOSE
[6] = Compound A 44 mg, 6.75 HOURS POST INFUSION START
[7] = Compound A 44 mg, 8.75 HOURS POST INFUSION START
[8] = Compound A 44 mg, 10 HOURS PREDOSE
[9] = Compound A 44 mg, 14 HOURS PREDOSE
[10] = Compound A 112 mg, 1.75 HOURS POST INFUSION END
[11] = Compound A 112 mg, 2 HOURS PREDOSE
[12] = Compound A 112 mg, 2.75 HOURS POST INFUSION START
[13] = Compound A 112 mg, 4.75 HOURS POST INFUSION START
[14] = Compound A 112 mg, 6 HOURS PREDOSE

Q: Which results are given for COC(=O)N1CCC[C@H](NS(C)(=O)=O)[C@@H]1CO[C@H]1CC[C@@H](c2ccccc2)CC1 [Compound A, methyl (2R,3S)-3-((methylsulfonyl)amino)-2-(((cis-4-phenylcyclohexyl)oxy)methyl)piperidine-1-carboxylate]?
A: Difference between average KSS score post and prior to infusion start, LS Mean (SE) (Compound A 44 mg): 3.68 (0.332); KSS Max [1]: 9; KSS Mean (SD) [1]: 8.4 (0.86); KSS Median [1]: 9.0; KSS Min [1]: 6; KSS Max [2]: 9; KSS Mean (SD) [2]: 4.0 (2.30); KSS Median [2]: 3.5; KSS Min [2]: 1; KSS Max [3]: 8; KSS Mean (SD) [3]: 4.8 (1.92); KSS Median [3]: 4.5; KSS Min [3]: 1; KSS Max [4]: 9; KSS Mean (SD) [4]: 6.4 (2.12); KSS Median [4]: 6.5; KSS Min [4]: 2; KSS Max [5]: 7; KSS Mean (SD) [5]: 2.8 (1.59); KSS Median [5]: 2.5; KSS Min [5]: 1; KSS Max [6]: 9; KSS Mean (SD) [6]: 7.8 (0.94); KSS Median [6]: 8.0; KSS Min [6]: 6; KSS Max [7]: 9; KSS Mean (SD) [7]: 8.1 (1.00); KSS Median [7]: 8.0; KSS Min [7]: 5; KSS Max [8]: 7; KSS Mean (SD) [8]: 2.8 (1.40); KSS Median [8]: 3.0; KSS Min [8]: 1; KSS Max [9]: 6; KSS Mean (SD) [9]: 2.8 (1.15); KSS Median [9]: 3.0; KSS Min [9]: 1; Difference between average KSS score post and prior to infusion start, LS Mean (SE) (Compound A 112 mg): 1.64 (0.332); KSS Max [10]: 9; KSS Mean (SD) [10]: 8.0 (1.57); KSS Median [10]: 8.5; KSS Min [10]: 3; KSS Max [11]: 6; KSS Mean (SD) [11]: 3.4 (1.76); KSS Median [11]: 3.0; KSS Min [11]: 1; KSS Max [12]: 8; KSS Mean (SD) [12]: 3.2 (2.02); KSS Median [12]: 2.0; KSS Min [12]: 1; KSS Max [13]: 9; KSS Mean (SD) [13]: 3.8 (1.82); KSS Median [13]: 3.0; KSS Min [13]: 1; KSS Max [14]: 4; KSS Mean (SD) [14]: 2.5 (0.92); KSS Median [14]: 3.0; KSS Min [14]: 1; KSS Max (Compound A 112 mg, 6.75 HOURS POST INFUSION START): 9
